Results published in US20230114627A1, “COMPOSITION COMPRISING A METAL ASCORBO-CAMPHORATE COMPOUND AND METHOD FOR PREVENTION AND/OR TREATMENT OF PAPILLOMAVIRUS INFECTIONS” (MGB PHARMA Inc., priority 2020, published 2023).
Where two headings read alike, the source gives them in different places.

What was measured:
[1] = system: Vero cells; assay: MTT cytotoxicity assay on Vero cells; type: cell-based
Procedure: (§1) The cytotoxicity study was conducted on three types of cells: on Vero cells, on human diploid MRC5 cells (human fibroblast and embryonic type), and on Cos-7 cells. […] The latter forms crystals with the highly metabolic living cells.
(§2) The absorbance at 490 nm of the dissolved crystals corresponds to the number of living cells.
In a first series of tests, the Cytotoxicity of said ascorbo-camphorate on Vero cells was verified with these solutions at dilution rates ranging from one tenth to one billionth.

[2] = system: human diploid MRC5 cells; assay: MTT cytotoxicity assay on MRC5 cells; type: cell-based
Procedure: as §1, §2
In a second series of tests, the cytotoxicity of said ascorbo-camphorate on MRC5 cells was tested with the solutions at dilution ratios ranging from 0 to 100 millionths.

[3] = system: Cos-7 cells; assay: Colorimetric cell viability assay on Cos-7 cells; type: cell-based; details: 24 hours, estimated; read-out: 50% cytotoxic concentration (CC50)
Procedure: as §1
In a third series of tests, the cytotoxicity of said ascorbo-camphorate on Cos-7 cells was verified. High concentrations of said ascorbo-camphorate may be required to produce an effective formulation. Therefore, the intrinsic toxicity of concentrations of said ascorbo-camphorate up to 5,000 μg/mL was evaluated using a colorimetric cell viability assay. Cos-7 cells were exposed to serial dilutions of the stock solution of said ascorbo-camphorate for 24 hours.
The viability index, or the fraction of viable cells after microbicide treatment relative to the fraction of viable cells exposed to the control condition, was calculated. Cells treated with 0.1% PBS-azide solution were used as a positive control for toxicity. The viability index, or the fraction of viable cells after treatment with the compound “AC” relative to the fraction of viable cells exposed to the natural state, was calculated. […] The 50% cytotoxic concentration (CC50) of said ascorbic camphorate was calculated using a dose-response-inhibition analysis on GraptiPad Prism v5.04 software (from GraphPad Software).

[4] = system: VLP-16 pseudovirions of the HPV-16 virus; details: for inhibitory concentration 50 (IC50) / IC50: estimated; for IC50: read-out: inhibitory concentration 50 (IC50)
Procedure: This experiment provides the data and analysis of an in vitro “AC” experimental treatment against the HPV-16 papillomavirus which was carried out by neutralizing the entry of viral pseudo particles (VLP-16) of the HPV-16 virus which was inoculated into Cos-7 cells, pretreated or treated contemporaneously to the inoculation of the VLP-16 with solutions of increasing concentrations of the said ascorbo-camphorate compound (AC).
In the case of the present tests in this example, pseudovirions were produced at the Université François Rabelais de Tours (France), under the direction of Professor A. Touzet. In brief, the VLP-16 virus pseudo particles or pseudovirions or VLPs were produced by transfection of purified plasmids containing the L1 and L2 structural proteins of the HPV-16 capsomers, and carrying a gene encoding the luciferase marker gene, into cell culture of the 293-cell line. VLP-16s were collected by nuclear lysis, with purification by […] gradient ultracentrifugation.
The positive control for the neutralization assay as disclosed herein used purified VLP-16 inoculum pre-incubated with purified antibodies against HPV (incubation for 1 hour of said VLP nuclear lysate in a solution of anti-HPV antibodies in DMED culture medium). These anti-HPV antibodies served as a positive control in the plaque assay for neutralization of Cos-7 cell infection by VLP-16.
Cells of the Cos-7 cell line were cultured in 96-well microplates, 5% CO2 and 98% H2O, at 37° C. Inoculation of Cos-7 cells was performed as follows: the inoculum mixture was added to the wells containing the confluent Cos-7 sheets, incubated for 72 hours at 37° C., 5% CO2 and 98% H2O, and the supernatant is washed and discarded from the mixture.
Cos-7 cells that may have internalized the luciferase-expressing VLPs were then recovered. The Cos-7 cells were then lysed; then the substrate (luciferin) of the reporter gene (luciferase) was added with dark incubation, for reading using a luminometer.
For each series, the experiments were repeated three times.
To assess pseudovirions infectivity, linear reporter gene expression and to perform titration of pseudovirions solutions, Cos-7 cells were grown (10^4 cells/well) in supplemented DMEM in 96-well plates (Thermo Fisher Scientific) in 5% CO2 at +37° C. until cell confluence was 40-50%. Cells were transduced by replacing the culture medium with fresh unsupplemented DMEM containing serial dilutions of the previously produced PsVs stock solutions and incubated at +37° C. One well containing 1 μg of the pGL4.10[luc2] vector, encoding the luciferase reporter gene, was made as a positive control and another was the cell control for background luminescence (without PsVs or reporter plasmid). After a 3 hours incubation period, 100 μL of growth medium was added to each well and the transduced Cos-7 cells were incubated for 48 h at +37° C. in 5% CO2. Then, the growth medium was removed and the transduced Cos-7 cells were washed with DPBS and incubated in the dark for 15 min in 100 μL of Pierce™ Firefly Luciferase One-Step Glow Assay (Thermo Fisher Scientific). The resulting cell lysates were harvested and transferred to white, 96-well microplates and luciferase enzyme activity was measured using the Luminoskan Ascent brand luminometer (from Thermo Fisher Scientific) after adding 50 μL of luciferin substrate to each well.
Serial dilutions of the stock solution of compound “AC” covering an appropriate concentration range were subjected to an HPV inhibition assay based on VLP-16 pseudovirions.

[5] = system: HEC-1A (line of endocervical origin); assay: XTT cell viability (KIT Tox-2) on HEC-1A; type: cell-based; details: 24 hours, 1 μM to 500 μM tested
Procedure: (§3) In this example, the cell viability as a measure of non-toxicity was assessed using KIT Tox-2 XTT Sigma Aldrich, where cell viability was measured in terms of the ability of cells to degrade a colorless compound into a colored compound (mitochondrial enzymes) using color intensity as being proportional to the cell viability. Three cell lines as models were used including HEC-1A (line of endocervical origin), SiHa (vaginal cells), and CaCo-2 (intestinal cells). […] KIT Tox-2 XTT Sigma Aldrich.

[6] = system: SiHa (vaginal cells); assay: XTT cell viability (KIT Tox-2) on SiHa; type: cell-based; details: 24 hours, 1 μM to 500 μM tested
Procedure: as §3

[7] = system: CaCo-2 (intestinal cells); assay: XTT cell viability (KIT Tox-2) on CaCo-2; type: cell-based; details: CaCo-2, 24 hours, 1 μM to 500 μM tested
Procedure: as §3

[8] = system: HEC-1A; assay: Transepithelial electrical resistance (TEER) of HEC-1A monostratified epithelium; type: cell-based; details: up to 500 μM, 24 hours
[9] = system: CaCo-2; assay: Transepithelial electrical resistance (TEER) of CaCo-2 monostratified epithelium; type: cell-based; details: CaCo-2, up to 500 μM, 24 hours
[10] = pseudovirions added simultaneously

Substance: zinc tetra-ascorbo-camphorate [C14]
- percentage of living cells remaining ([1]; 50-fold dilution of 0.05155 M stock): greater than or equal to 50%
- molarity of solutions tolerable by Vero cells (upper limit, value excluded) ([1]; lower limit tested 5.15.10^−5 μM): < 1031 µM
- molarity of solutions tolerable by MRC5 cells (upper limit, exclusive value) ([2]; lower limit tested 5.15.10-4 μM): < 5155 µM
- percentage of living cells remaining ([2]; one-tenth dilution of 0.05155 M stock): greater than or equal to 50%
- CC50 [3]: > 5150 µM
- inhibition of VLP-16 internalization ([4]; contemporaneous addition, 1/10 dilution (515.5 μM)): Total inhibition
- inhibition of VLP-16 penetration into Cos-7 cells ([4]; contemporaneous addition, dilution 1:10^3 (51.5 μM)): 33%
- inhibitory concentration 50 (IC50) ([4]; pre-treatment of Cos-7 cells): 2.8 µg/mL
- inhibition of penetration of VLP-16 into Cos-7 cells ([4]; pretreatment, compared to untreated infected controls): 30-40%
- inhibition of VLP-16 internalization ([4]; pretreatment, dilution 1/10^2 (515.5 μM)): total inhibition
- inhibitory concentration 50 (IC50) [4, 10]: 8.1 µg/mL
- IC50 ([4]; pre-treatment of Cos-7 cells): 2.9 µM
- IC50 [4, 10]: 8.3 µM
- concentrations without toxicity to epithelial cells [5]: less than or equal to 125 μM
- concentrations without toxicity to epithelial cells [6]: less than or equal to 125 μM
- concentrations without toxicity to epithelial cells [7]: less than or equal to 125 μM
- effect on TEER [8]: does not affect the TEER
- effect on TEER [9]: does not affect the TEER
